Reference: article PMC8906060 (Antiviral Research, 2022)

Key:
[1] = biological target: 3CLpro (Severe acute respiratory syndrome coronavirus 2, UniProt P0DTD1); format: biochemical, SARS-CoV-2
[2] = biological target: SARS-CoV-2 3CLpro (Severe acute respiratory syndrome coronavirus 2, UniProt P0DTD1); format: biochemical; conditions: read-out: 3CLpro IC50
[3] = test system: COVID-19; conditions: COVID-19 patients, ref Beigel et al., 2020, cited from earlier work
[4] = test system: SARS-CoV-2; test: microbe, parasite or virus in culture; format: cell-based; conditions: Severe acute respiratory syndrome coronavirus 2

COC(=O)c1c(C)[nH]c(C(=O)COn2nnc3ccc(S(=O)(=O)N(C)C)cc32)c1C [Compound 12]
IC50 ([1]; read-out: FRET IC50): 0.35 µM | IC50 [2]: 1.32 µM

COc1ccc(-c2nc(NC(=O)c3ccc(C)c(F)c3)n[nH]2)cc1OC [Compound 30]
FRET IC50 [1]: high fluorescent signals

CCC(CC)COC(=O)[C@H](C)N[P@](=O)(OC[C@H]1O[C@@](C#N)(c2ccc3c(N)ncnn23)[C@H](O)[C@@H]1O)Oc1ccccc1 [Remdesivir]
recovery ([3]; reduced from 15 days): 11 days | effect on mortality [3]: no significant effect | EC50 [4]: 1.84 µM
